This passage reports IC50 and Ki results from ChEMBL document CHEMBL1909046, “DrugMatrix in vitro pharmacology data”.

Each structure is given as a SMILES string. *1 amine or outer side, *2 acyl side, *3 side chain or, on linkers, in order; H or OH if unused. Where a SMILES comes first, the peptide text is derived from it. Bridges are numbered along the chain shown (N, C = ends). Roman numbers before positions name the chains, in order. [ ]: non-standard residue; d: D form. Actinocin(1to9) = Cc1c2oc3c(C)ccc(C(=O)[*:2])c3nc-2c(C(=O)[*:1])c(N)c1=O; NMeV = CN[C@H](C(=O)O)C(C)C; Sar = CNCC(=O)O

Test [1] is described as follows: DRUGMATRIX: Nicotinic Acetylcholine radioligand binding (ligand: [125I] Epibatidine). To be noted: imr-32; Not Active = under 50% inhibition at 10 µM. The class given is cell membranes, Membrane.
For test [2], the target named is Glycine receptor (Rattus norvegicus, UniProt P22771+P24524+P07727+P20781). In kind it is cell membranes, Wistar, Spinal cord, Membrane. Further: in other assays of this panel Not Active means under 50% inhibition at 10 µM.
For test [3], the target named is T1, Cathepsin G (Homo sapiens, UniProt P08311).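 Further: inhibition of Cathepsin G enzyme activity, tested on an AMC-conjugated peptide substrate; in other assays of this panel Not Active means under 50% inhibition at 10 µM.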
T1 sequence (P08311 whole entry): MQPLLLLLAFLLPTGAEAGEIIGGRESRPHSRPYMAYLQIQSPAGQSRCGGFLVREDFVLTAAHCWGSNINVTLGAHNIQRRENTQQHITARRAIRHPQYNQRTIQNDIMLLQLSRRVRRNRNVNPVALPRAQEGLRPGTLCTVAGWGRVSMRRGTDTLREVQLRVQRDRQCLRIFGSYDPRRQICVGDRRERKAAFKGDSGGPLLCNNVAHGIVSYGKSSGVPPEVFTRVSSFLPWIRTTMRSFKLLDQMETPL
The class given is tissue-based. The following applies: neutrophil.

Test [4] concerns the target Protein kinase C alpha type (Homo sapiens, UniProt P17252). The class given is cell-based. To be noted: sf9.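 Further: inhibition of PKCalpha kinase activity measured in an enzyme assay with histone as the phosphorylation substrate; in other assays of this panel Not Active means under 50% inhibition at 10 µM.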
Test [5] concerns the target 5-hydroxytryptamine receptor 4 (Cavia porcellus, UniProt O70528). The class given is cell membranes, Dunkin-Hartley, Striatum, Membrane. To be noted: for Ki: read-out: Ki. On all read-outs here: in other assays of this panel Not Active means under 50% inhibition at 10 µM.
Test [6] has as its target T2, Neutrophil elastase (Homo sapiens, UniProt P08246).
T2 sequence (P08246 whole entry): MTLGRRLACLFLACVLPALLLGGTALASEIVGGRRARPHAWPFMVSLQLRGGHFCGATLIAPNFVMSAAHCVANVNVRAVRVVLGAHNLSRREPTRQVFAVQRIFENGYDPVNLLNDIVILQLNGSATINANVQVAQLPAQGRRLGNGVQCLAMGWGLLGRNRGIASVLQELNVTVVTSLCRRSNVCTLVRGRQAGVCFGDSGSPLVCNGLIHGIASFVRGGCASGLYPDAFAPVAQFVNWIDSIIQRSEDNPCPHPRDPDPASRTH
In kind it is tissue-based.

Test [7] can be described thus: DRUGMATRIX: Interleukin IL-1 radioligand binding (ligand: [125I] interleukin 1beta). In kind it is cell membranes, Membrane. To be noted: nih3t3; Not Active = under 50% inhibition at 10 µM.
The target of test [8] is Beta-2 adrenergic receptor (Homo sapiens, UniProt P07550). The test is described as follows: DRUGMATRIX: Adrenergic beta2 radioligand binding (ligand: [3H] CGP-12177). The class given is cell membranes, Membrane. The following applies: cho; Not Active = under 50% inhibition at 10 µM.
Sequence of Beta-2 adrenergic receptor (P07550 whole entry): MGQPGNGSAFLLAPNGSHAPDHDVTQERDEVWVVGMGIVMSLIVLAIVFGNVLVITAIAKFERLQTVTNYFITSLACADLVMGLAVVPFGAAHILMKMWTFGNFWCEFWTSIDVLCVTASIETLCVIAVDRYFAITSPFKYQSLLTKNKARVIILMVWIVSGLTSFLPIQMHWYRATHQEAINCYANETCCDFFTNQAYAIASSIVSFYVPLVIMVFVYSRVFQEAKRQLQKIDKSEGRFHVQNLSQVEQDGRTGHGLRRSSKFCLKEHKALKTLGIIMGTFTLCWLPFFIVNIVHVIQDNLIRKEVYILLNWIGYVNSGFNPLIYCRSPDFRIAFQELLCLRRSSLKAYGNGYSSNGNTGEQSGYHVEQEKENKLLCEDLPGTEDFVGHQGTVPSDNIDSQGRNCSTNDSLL

Sequence of 5-hydroxytryptamine receptor 4 (O70528 whole entry): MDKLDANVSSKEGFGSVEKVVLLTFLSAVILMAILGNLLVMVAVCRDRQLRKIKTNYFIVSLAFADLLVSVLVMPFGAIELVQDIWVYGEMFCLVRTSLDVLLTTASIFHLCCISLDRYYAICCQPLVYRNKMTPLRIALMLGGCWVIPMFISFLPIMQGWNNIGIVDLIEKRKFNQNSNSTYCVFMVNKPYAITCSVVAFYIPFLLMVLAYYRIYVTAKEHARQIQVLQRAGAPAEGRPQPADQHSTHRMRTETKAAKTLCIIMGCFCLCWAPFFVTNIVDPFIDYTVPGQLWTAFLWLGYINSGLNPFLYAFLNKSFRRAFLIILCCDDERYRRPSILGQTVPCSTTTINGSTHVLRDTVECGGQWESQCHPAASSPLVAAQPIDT

As to `Clc1cccc(Cl)c1NC1=NCCN1` [CLONIDINE], the 50% inhibitory concentration (IC50) entry in test [1], in test [2], in test [3], in test [4], in test [5] and in test [6] was “Not Active” throughout. The IC50 result in test [7] and in test [8] was “Not Active” in each case. The Ki entry in test [1] and in test [7] was “Not Active” each time.

As for `Cc1cc(C(C#N)c2ccc(Cl)cc2)c(Cl)cc1NC(=O)c1cc(I)cc(I)c1O` (stereo not drawn) [CLOSANTEL], the IC50 entry in test [1], in test [2], in test [3], in test [4], in test [5] and in test [6] was “Not Active” throughout. In addition, the IC50 entry in test [7] and in test [8] was “Not Active” in each case. For the same compound, the Ki result in test [1] and in test [7] was “Not Active” each time.

With `Cc1onc(-c2ccccc2Cl)c1C(=O)N[C@@H]1C(=O)N2[C@@H]1SC(C)(C)[C@@H]2C(=O)O` [CLOXACILLIN], the half-inhibitory concentration (IC50) result in test [1], in test [2], in test [3], in test [4], in test [5] and in test [6] was “Not Active” each time. For the same compound, the IC50 entry in test [7] and in test [8] was “Not Active” in each case. For the same compound, the Ki entry in test [1] and in test [7] was “Not Active” throughout.

Regarding `CC1CC(OC(=O)C(O)c2ccccc2)CC(C)(C)C1` (stereo not drawn) [CYCLANDELATE], the IC50 entry in test [1], in test [2], in test [3], in test [4], in test [5] and in test [6] was “Not Active” throughout. Also, the IC50 entry in test [7] and in test [8] was “Not Active” each time. Moreover, the inhibition constant Ki entry in test [1] and in test [7] was “Not Active” each time.

For `Cc1c2oc3c(C)ccc(C(=O)N[C@@H]4C(=O)N[C@H](C(C)C)C(=O)N5CCC[C@H]5C(=O)N(C)CC(=O)N(C)[C@@H](C(C)C)C(=O)O[C@@H]4C)c3nc-2c(C(=O)N[C@@H]2C(=O)N[C@H](C(C)C)C(=O)N3CCC[C@H]3C(=O)N(C)CC(=O)N(C)[C@@H](C(C)C)C(=O)O[C@@H]2C)c(N)c1=O` [DACTINOMYCIN] (I: T[dV]P[Sar][NMeV] / II: T[dV]P[Sar][NMeV]; ester I:1-I:C, II:1-II:C; linker I:N-II:N via Actinocin(1to9)), the IC50 entry in test [1], in test [2], in test [3], in test [4], in test [5] and in test [6] was “Not Active” each time. Also, the IC50 result in test [7] and in test [8] was “Not Active” in each case. Besides, the Ki result in test [1] and in test [7] was “Not Active” throughout.

With `Cc1c(O)c(=O)ccn1C` [DEFERIPRONE], the 50% inhibitory concentration (IC50) entry in test [1], in test [2], in test [3], in test [4], in test [5] and in test [6] was “Not Active” each time. Moreover, the IC50 entry in test [7] and in test [8] was “Not Active” throughout. Moreover, the inhibitory constant (Ki) result in test [1] and in test [7] was “Not Active” throughout.

Consider `O=c1oc2ccccc2c(O)c1Cc1c(O)c2ccccc2oc1=O` [DICUMAROL], for which the IC50 result in test [1], in test [2], in test [3], in test [4], in test [5] and in test [6] was “Not Active” each time. Besides, the IC50 result in test [7] and in test [8] was “Not Active” each time. Moreover, the inhibition constant (Ki) result in test [1] and in test [7] was “Not Active” in each case.

For the compound `C[C@H]1O[C@@H](O[C@H]2[C@@H](O)C[C@H](O[C@H]3[C@@H](O)C[C@H](O[C@H]4CC[C@@]5(C)[C@H](CC[C@@H]6[C@@H]5C[C@@H](O)[C@]5(C)[C@@H](C7=CC(=O)OC7)CC[C@]65O)C4)O[C@@H]3C)O[C@@H]2C)C[C@H](O)[C@@H]1O` [DIGOXIN], the IC50 entry in test [1], in test [2], in test [3], in test [4], in test [5] and in test [6] was “Not Active” each time. Moreover, the IC50 result in test [7] and in test [8] was “Not Active” each time. Further, the Ki result in test [1] and in test [7] was “Not Active” throughout.

`CC(C)[C@@]1(NC(=O)[C@@H]2C[C@@H]3c4cccc5[nH]cc(c45)C[C@H]3N(C)C2)O[C@@]2(O)[C@@H]3CCCN3C(=O)[C@H](Cc3ccccc3)N2C1=O.CS(=O)(=O)O` [DIHYDROERGOCRISTINE MESYLATE]: the concentration for half-maximal inhibition (IC50) (in general, the midpoint of a concentration-inhibition curve) was “Not Active” in test [1]; “Not Active” in test [2]; “Not Active” in test [3]; “Not Active” in test [4]; 4.91 µM in test [5] (read-out: IC50); “Not Active” in test [6]. In addition, the IC50 result in test [7] and in test [8] was “Not Active” throughout. Besides, the figures for the inhibitory constant (Ki) entry in test [1], in test [5] and in test [7] were “Not Active”, 0.819 µM and “Not Active”, respectively.

For the compound `CC(=O)O[C@@]12CO[C@@H]1C[C@H](O)[C@@]1(C)C(=O)[C@H](O)C3=C(C)[C@@H](OC(=O)[C@H](O)[C@@H](NC(=O)OC(C)(C)C)c4ccccc4)C[C@@](O)([C@@H](OC(=O)c4ccccc4)[C@H]21)C3(C)C.O.O.O` [DOCETAXEL], the 50% inhibitory concentration (IC50) result in test [1], in test [2], in test [3], in test [4], in test [5] and in test [6] was “Not Active” each time. Also, the IC50 entry in test [7] and in test [8] was “Not Active” each time. For the same compound, the inhibitory constant (Ki) result in test [1] and in test [7] was “Not Active” throughout.

In the case of `C[C@H]1c2cccc(O)c2C(=O)C2=C(O)[C@]3(O)C(=O)C(C(N)=O)=C(O)[C@@H](N(C)C)[C@@H]3[C@@H](O)[C@@H]21.O` [DOXYCYCLINE], the concentration for half-maximal inhibition (IC50) result in test [1], in test [2], in test [3], in test [4], in test [5] and in test [6] was “Not Active” each time. Moreover, the half-inhibitory concentration (IC50) result in test [7] and in test [8] was “Not Active” in each case. Also, the inhibition constant Ki result in test [1] and in test [7] was “Not Active” throughout.

As for `O=C(CCCN1CC=C(n2c(=O)[nH]c3ccccc32)CC1)c1ccc(F)cc1` [DROPERIDOL], the concentration for half-maximal inhibition (IC50) result in test [1] is “Not Active”; in test [2], “Not Active”; in test [3] it was “Not Active”; in test [4] it was “Not Active”; in test [5] (read-out: IC50), 3.79 µM; in test [6], “Not Active”. The IC50 entry in test [7] and in test [8] was “Not Active” each time. For the same compound, the Ki (as a rule, a measure of affinity in units of concentration, obtained from inhibition or displacement) in test [1] is “Not Active”; in test [5], 0.632 µM; in test [7] it was “Not Active”.

With `CC(C)[C@H]1C(=O)N2CCC[C@H]2[C@]2(O)O[C@](NC(=O)[C@@H]3C=C4c5cccc6[nH]cc(c56)C[C@H]4N(C)C3)(C(C)C)C(=O)N12` [ERGOCORNINE], the half-inhibitory concentration (IC50) result in test [1], in test [2], in test [3], in test [4], in test [5] and in test [6] was “Not Active” in each case. Besides, the IC50 entry in test [7] and in test [8] was “Not Active” each time. The inhibitory constant (Ki) entry in test [1] and in test [7] was “Not Active” in each case.

On to `C[C@]12CC[C@@H]3c4ccc(O)cc4CC[C@H]3[C@@H]1CCC2=O` [ESTRONE], for which the half-maximal inhibitory concentration (IC50) entry in test [1], in test [2], in test [3], in test [4], in test [5] and in test [6] was “Not Active” each time. Further, the IC50 entry in test [7] and in test [8] was “Not Active” throughout. In addition, the inhibitory constant (Ki) result in test [1] and in test [7] was “Not Active” in each case.

As to `OC(Cn1cncn1)(Cn1cncn1)c1ccc(F)cc1F` [FLUCONAZOLE], the IC50 result in test [1], in test [2], in test [3], in test [4], in test [5] and in test [6] was “Not Active” throughout. Moreover, the IC50 entry in test [7] and in test [8] was “Not Active” in each case. Besides, the inhibitory constant (Ki) entry in test [1] and in test [7] was “Not Active” throughout.

In the case of `CC(C)C(=O)Nc1ccc([N+](=O)[O-])c(C(F)(F)F)c1` [FLUTAMIDE], the half-maximal inhibitory concentration (IC50) result is “Not Active” in test [1]; “Not Active” in test [2]; “Not Active” in test [3]; “Not Active” in test [4]; 13.5 µM in test [5] (read-out: IC50); “Not Active” in test [6]. Also, the concentration for half-maximal inhibition (IC50) entry in test [7] and in test [8] was “Not Active” in each case. In addition, the Ki entry is “Not Active” in test [1], 2.26 µM in test [5] and “Not Active” in test [7].
